{
  "source": "patent US9265781B2",
  "about": "“Process for producing a particulate composition comprising anhydrous crystalline 2-O-alpha-D-glucosyl-L-ascorbic acid” (HAYASHIBARA CO., LTD., priority 2009, dated 2016)",
  "test": "Accelerated heat-treatment test for browning (Experiment 4)",
  "format": "physicochemical",
  "details": "150 mg heated at 80° C. for three days, dissolved in 3 ml water, absorbance at 400 nm",
  "description": "Accordingly, in this experiment, Test samples 1 and 12 to 16, which had been used in the antecedent Experiments, were examined for the relationship between the coloration and the total content of L-ascorbic acid plus D-glucose, the content of L-ascorbic acid, or the reducing power of the whole particulate composition by conducting an accelerated test on heat treatment according to the following procedures:\nOne hundred and fifty milligrams of each of the test samples was weighed and placed in a 10-ml test tube with a screw cap, and the test tubes in a closed condition of their opening parts with the screw caps were placed in “DRYING-OVEN SA310”, a product name of an oven commercialized by Masuda Corp., Osaka, Japan, and heated at 80° C. for three days. […] The resulting solutions were measured for absorbance at a wavelength of 400 nm using “UV-2400PC”, a product name of a spectrophotometer commercialized by Shimadzu Corp., Kyoto, Japan. The degree of coloration caused by heating was judged based on the following two criteria: When the absorbance at a wavelength of 400 nm is less than 0.50, it is judged as “Not browned or substantially not browned” (−); and when the absorbance at a wavelength of 400 nm is 0.50 or higher, it is judged as “Browned” (+).",
  "data": [
    {"molecule": "O=C1O[C@H]([C@@H](O)CO)C(O)=C1O[C@H]1O[C@H](CO)[C@@H](O)[C@H](O)[C@H]1O", "note": "[Test sample 16, 2-O-α-D-glucosyl-L-ascorbic acid]", "values": [
      {"measurement": "Browning property", "result": "+ (when the absorbance at a wavelength of 400 nm is 0.50 or higher, it is judged as “Browned” (+))"}
    ]}
  ]
}
